Laboratory results reported in patent EP2197879B1, “C7-SUBSTITUTED CAMPTOTHECIN ANALOGS” (priority 2007, dated 2009).
Where two headings read alike, the source gives them in different places.

What was measured:
[1] = test system: advanced malignant melanoma; details: 90-360 mg/m^2 repeated every 2 weeks; fifteen patients; cited from earlier work
[2] = cited from earlier work; for No. of Patients With Cystitis / No. of Patients With Diarrhea: 5-day Course; for Number of Patients with Cystitis / Number of Patients with Diarrhea: Single-Dose Method
[3] = test system: advanced gastrointestinal cancer; details: cited from earlier work
[4] = cited from earlier work
[5] = closed E-ring lactone form; drug dissolving in 1 mL of water; cited from earlier work
angiogenesis = details: dose levels of 210 mg/kg; cited from earlier work
[6] = clinical studies in Japan alone; cited from earlier work
[7] = test system: A2780/WT (wild-type) cells; experiment: Sulforhodamine B (SRB) cytotoxicity assay in A2780/WT cells; assay type: cell-based
Experimental: (§1) Each of the testing conditions used in this study in both A2780/WT (wild-type) and A2780/DX5 cells were repeated in five to fifteen experiments that were performed on separate days. Each experiment consisted of one microtiter plate with at least eight individual assays of a given drug treatment condition on the plate. The sulforhodamine B (SRB) assay was used to assess cytotoxicity and absorbance at 570 nm (A570) in order to calculate the percentage of cell control (or percent cell survival) for the various treatment conditions in the plate wells.
(§2) Roswell Park Memorial Institute (RPMI 1640) medium, fetal bovine serum (FBS), and L-glutamine were purchased from Gibco BRL. Drugs were dissolved in sterile dimethylsulfoxide (DMSO), from American Type Culture Collection (ATCC) for stock solutions (2.5 to 5.0 mM). Subsequent dilutions were made using cell culture medium (prior to adding the drug to cells). SRB was purchased from Sigma and dissolved in 1.0 percent acetic acid. Trichloroacetic acid was purchased from VWR International.
(§3) Cells were manipulated in a Class IIA/B3 Biological Safety Cabinet (Forma Scientific) and maintained at 37°C in a humidified atmosphere containing 5% CO2 in a water-jacketed cell culture incubator (Forma Scientific). Cells were counted using a Coulter-Z1 counter (Beckman-Coulter). Following drug treatment, plates were washed using a Biomek 2000 station (Beckman) and, following exposure to SRB dye, plates were washed using an automated plate washer (Model EL404, Bio-Tek Instruments). Percentage of control was correlated to A570 values and determined using a Model EL800 plate reader (Bio-Tek Instruments).
(§4) Population doubling times for the two cell lines used in this study encompassed a total of five cell doublings corresponding to approximately 5 days for A2780/WT and A2780/DX5 cells. A2780/WT and A2780/DX5 cells were cultured in RPMI 1640 medium supplemented with 10% fetal bovine serum and 1 mM of L-glutamine. Both cell lines were maintained as monolayered cultures in T-25 or T-75 flasks and then seeded to microtiter plate wells for experiments described herein. Prior to SRB assays, cell viability was monitored by evaluation of microtiter plate wells. Dead cells detach and float while living cells remain attached to the bottom of the cell well.
(§5) The sulforhodamine B (SRB) cytotoxicity assay (see, Skehan P, et al., New colorimetric cytotoxicity assay for anticancer-drug screening. J. Natl. Cancer Inst. 82:1107-1112 (1990)) was used to determine the cytotoxic effects of BNP1350, SN-38, topotecan, 9-NH2-CPT, and 9-NO2-CPT on cell growth in vitro. Briefly, after the medium was aspirated from individual plate wells, trichloroacetic acid (100 µL of 10.0% solution) was added to each well, and the plates were incubated at 4°C for at least 1 hour. The plates were washed five-times with water using an automated microplate washer (Model EL 404, Bio-Tek Instruments), SRB solution (100 µL of 0.4 grams SRB dissolved in 100 mL 1.0 percent acetic acid) was added, and plates remained at room temperature for 15 minutes. The plates were then washed five-times using acetic acid (1.0%), air dried, and bound dye was solubilized in Tris base (150 µL, 10 mM). Plates were agitated (gently) for 5 minutes and the absorbance values of the SRB dye-protein adduct at a 570 nm wavelength (A570) were determined using an automated microtiter plate reader equipped with an A570 filter (Model EL800, BioTek Instruments). Table VII. Summary of Cytotoxicity Experiments in A2780/WT and DX5 Cells

A2780/DX5 cells = experiment: Sulforhodamine B (SRB) cytotoxicity assay in A2780/DX5 cells; assay type: cell-based; details: for IC50 Ratio: A2780/DX5 versus A2780/WT
Experimental: as §1, §2, §3, §4, §5

[8] = test system: panel of over 20 human cancer cell lines; experiment: In vitro antitumor potency on a panel of human cancer cell lines; details: compared with Topotecan or SN-38
[9] = cited from earlier work; remark: listed apart in the source
[10] = 5-Day Course (27 Patients Total), 4 wks
[11] = 5-Day Course (27 Patients Total), 8 wks
[12] = 5-Day Course (27 Patients Total), 12 wks
[13] = Single-Dose Method (34 Patients Total), 3 wks
[14] = Single-Dose Method (34 Patients Total), 6 wks
[15] = Single-Dose Method (34 Patients Total), 9 wks
[16] = Single-Dose Method (34 Patients Total), 12 wks
[17] = 100 nM Compound Concentrations, 48 hours or longer at room temperature
[18] = Homo sapiens, A2780, read-out: A2780/ WT (IC50)
[19] = Homo sapiens, SRB assay, A2780/DX5 cells, read-out: A2780/ DX5 (IC50)

CC[C@@]1(O)C(=O)OCc2c1cc1n(c2=O)Cc2cc3ccccc3nc2-1 [CPT sodium]
patients with a 50% or greater decrease in tumor diameter [1]: None | patients with less pronounced transient tumor regression [1]: three | patients with myelosuppression [1]: 11 | Cystitis ([2]; 5-Day Course): 48 (P<0.05) % of 27 Patients | No. of Patients With Cystitis ([2]; 11 mg/m^2 X 5): 1 | No. of Patients With Cystitis ([2]; 15 mg/m^2 X 5): 4 | No. of Patients With Diarrhea ([2]; 15 mg/m^2 X 5): 1 | No. of Patients With Cystitis ([2]; 17 mg/m^2 X 5): 2 | No. of Patients With Diarrhea ([2]; 17 mg/m^2 X 5): 4 | No. of Patients With Cystitis ([2]; 20 mg/m^2 X 5): 6 | No. of Patients With Diarrhea ([2]; 20 mg/m^2 X 5): 4 | No. of Patients With Diarrhea ([2]; 22 mg/m^2 X 5): 1 | Cystitis ([2]; Single Dose): 24 % of 34 Patients | Number of Patients with Cystitis ([2]; 100 mg/m^2): 2 | Number of Patients with Cystitis ([2]; 110 mg/m^2): 1 | Number of Patients with Diarrhea ([2]; 110 mg/m^2): 1 | Number of Patients with Cystitis ([2]; 120 mg/m^2): 2 | Number of Patients with Diarrhea ([2]; 120 mg/m^2): 4 | Number of Patients with Cystitis ([2]; 180 mg/m^2): 3 | Number of Patients with Diarrhea ([2]; 180 mg/m^2): 2 | Objective Results: Improved [3, 10]: 1 | Objective Results: Stable [3, 10]: 12 | Objective Results: Worse [3, 10]: 14 | Objective Results: Stable [3, 11]: 7 | Objective Results: Worse [3, 11]: 20 | Objective Results: Stable [3, 12]: 6 | Objective Results: Worse [3, 12]: 21 | Objective Results: Improved [3, 13]: 4 | Objective Results: Stable [3, 13]: 17 | Objective Results: Worse [3, 13]: 13 | Objective Results: Improved [3, 14]: 2 | Objective Results: Stable [3, 14]: 11 | Objective Results: Worse [3, 14]: 21 | Objective Results: Improved [3, 15]: 2 | Objective Results: Stable [3, 15]: 8 | Objective Results: Worse [3, 15]: 24 | Objective Results: Stable [3, 16]: 6 | Objective Results: Worse [3, 16]: 28 | patients with partial objective improvement ([3]; after 2 months (8 or 9 weeks), of 61 patients): two | patients with improvement ([3]; at 3 months, of 61 patients): none | patients who showed a 25%-50% response ([3]; at 3 wks, only): *A total of 3 patients showed a 25%-50% response at 3 wks, only. | patients with dose limiting bladder toxicity ([4]; doses of 20 to 30 mg/m^2): three | additional patients with bladder toxicity ([4]; doses of 30 and 44 mg/m^2): two | clinical benefit ([4]; eight patients with measurable disease, 5-day courses): No clinical benefit

CC[C@@]1(O)C(=O)OCc2c1cc1n(c2=O)Cc2cc3ccccc3nc2-1 [CPT, (S)-4-Ethyl-4-hydroxy-1 H-pyrano[3',4':6,7]indolizino[1,2-b]quinoline-3,14(4H,12H)-dione]
Percent of Free Camptothecin Analogs in Human Plasma (human plasma proteins; [17]): 0% | solubility in water [5]: approximately 0.1 µg

CCc1c2c(nc3ccc(OC(=O)N4CCC(N5CCCCC5)CC4)cc13)-c1cc3c(c(=O)n1C2)COC(=O)[C@]3(O)CC [CPT-11, 7-ethyl-10-[4-(1-piperidino)-1-piperidino] carbonyloxy camptothecin]
neovascularization (angiogenesis): significant reduction of neovascularization | patient deaths directly attributable to drug toxicity [6]: approximately 100

CC[C@@]1(O)C(=O)OCc2c1cc1n(c2=O)Cc2c-1nc1ccccc1c2CC[Si](C)(C)CCl [Compound 3, 11-(4S)-[2-(chloromethyldimethylsilanyl)-ethyl]-4-ethyl-4-hydroxy-1,12-dihydro-4H-2-oxa-6,12a-diaza-dibenzo[b,h]fluorene-3,13-dione]
IC50 [7, 18]: 10 nM | IC50 Ratio (A2780/DX5 cells): 1.45 | IC50 (A2780/DX5 cells; Homo sapiens, A2780, read-out: A2780/ DX5 (IC50)): 14.5 nM | Percent of Free Camptothecin Analogs in Human Plasma (human plasma proteins; [17]): 1%

CC[C@@]1(O)C(=O)OCc2c1cc1n(c2=O)Cc2c-1nc1ccccc1c2CC[Si](C)(C)COC(C)=O [Compound 6, acetic acid-(4S)-{[2-(4-ethyl-4-hydroxy-3,13-dioxo-3,4,12,13-tetrahydro-1H-2-oxa-6,12a-diaza-dibenzo[b,h]fluoren-11-yl)-ethyl]-dimethylsilanyl}-methyl ester]
IC50 ([7]; Homo sapiens, SRB assay, A2780/WT cells, read-out: A2780/ WT (IC50)): 9.3 nM | IC50 Ratio (A2780/DX5 cells): 2.27 | IC50 (A2780/DX5 cells; [19]): 21.1 nM | Percent of Free Camptothecin Analogs in Human Plasma (human plasma proteins; human, 100 nM): 5%

CC[C@@]1(O)C(=O)OCc2c1cc1n(c2=O)Cc2c-1nc1ccccc1c2CC[Si](C)(C)CCCO [Compound 10, 4S-4-ethyl-4-hydroxy-11-{2-[(3-hydroxypropyl)-dimethylsilanyl]-ethyl}-1,12-dihydro-4H-2-oxa-6,12a-diaza-dibenzo[b,h]fluorene-3,13-dione]
IC50 ([7]; SRB assay, A2780/WT cells, read-out: A2780/ WT (IC50)): 9.6 nM | IC50 Ratio (A2780/DX5 cells): 3.68 | IC50 (A2780/DX5 cells; SRB assay, A2780/DX5 cells, read-out: A2780/ DX5 (IC50)): 35.3 nM | Percent of Free Camptothecin Analogs in Human Plasma (human plasma proteins; [17]): 3.4%

CC[C@@]1(O)C(=O)OCc2c1cc1n(c2=O)Cc2c-1nc1ccccc1c2CC[Si](C)(C)Cn1cncn1 [Compound 30, (4S)-11-[2-(dimethyl-[1,2,4]triazol-1-ylmethylsilanyl)-ethyl]-4-ethyl-4-hydroxy-1,12-dihydro-4H-2-oxa-6,12a-diaza-dibenzo[b,h]fluorene-3,13-dione]
IC50 [7, 18]: 7.7 nM | IC50 Ratio (A2780/DX5 cells): 7.8 | IC50 (A2780/DX5 cells; [19]): 60.4 nM | Percent of Free Camptothecin Analogs in Human Plasma (human plasma proteins; human, 100 nM): 8%

CC[C@@]1(O)C(=O)OCc2c1cc1n(c2=O)Cc2c-1nc1ccccc1c2CC[Si](C)(C)C [Karenitecin, (4S)-4-ethyl-4-hydroxy-11-[2-(trimethylsilyl)ethyl]-1H-pyrano[3':4':6,7]indolizino[1,2-b]quinoline-3,14(4H,12H)-dione]
Percent of Free Camptothecin Analogs in Human Plasma (human plasma proteins): 1.2% | protein-bound (human plasma proteins): 98-99% | antitumor potency [8]: significantly more potent

CCc1c2c(nc3ccc(O)cc13)-c1cc3c(c(=O)n1C2)COC(=O)[C@]3(O)CC [SN-38, 10-hydroxy-7-ethyl camptothecin]
Percent of Free Camptothecin Analogs in Human Plasma (human plasma proteins; [17]): 15%

CC[C@@]1(O)C(=O)OCc2c1cc1n(c2=O)Cc2cc3c(CN(C)C)c(O)ccc3nc2-1 [Topotecan, 9-dimethylaminomethyl-10-hydroxy camptothecin]
Percent of Free Camptothecin Analogs in Human Plasma (human plasma proteins; [17]): 100%

CC[C@@](O)(C(=O)O)c1cc2n(c(=O)c1CO)Cc1cc3ccccc3nc1-2 [carboxylate form of CPT]
anti-tumor potency relative to the original, non-hydrolyzed lactone form ([9]; carboxylate form from sodium hydroxide formulation): approximately one-tenth or less | anti-tumor activity reduced ([9]; carboxylate form versus lactone): at least 10 fold
